Residues, ends and D or L forms follow the SMILES beside them. *: point of attachment. Cbz = O=C(OCc1ccccc1)*
Legend:
TALL1 cells = experiment: Cytotoxicity seen as reduction of actin in Western blot; assay type: cell-based, human; settings: 20 μM
[1] = system: Notch3 receptor present in the membrane; experiment: Cytofluorometric analysis of Notch3 membrane expression in T-ALL cells; assay type: cell-based, human
Notch3 receptor [2] = experiment: Western blotting of Notch3 protein in T-ALL cell lines; assay type: cell-based, human; settings: 16 hours; for Notch3 protein levels, inhibitor added to TSA: MOLT3 and TALL1 cells, with proteasome or lysosome inhibitor
Method: In particular, in FIG. 1A is shown the three cell lines of T-ALL MOLT3, Jurkat and DND41 were treated for 16 hours in vitro with TSA 500 nM.
MOLT3 cells shown in FIG. 3A and TALL1 cells shown in FIG. 3B were treated with TSA 500 nM for 16 hours, and simultaneously in the presence or absence of a proteasome (MG132) or lysosome (chloroquine—CHL) inhibitor. […] The numbers below the bands refer to densitometric analysis.
In FIG. 4A, T-ALL cell lines and primary cells were treated in vitro for 16 hours with the HDAC6 inhibitor Tubacin (2 μM, TUB), HDAC1 inhibitor (2 μM, HDAC1i), or HDAC8 inhibitor (2 μM, HDAC8i). […] In FIG. 4C, the three cell lines of T-ALL MOLT3, Jurkat and DND41 (left) and n=3 primary lines (right) were treated for 24 hours in vitro with the compounds previously described, and cell death was evaluated by marking with Annexin V and analysis by cytofluorometer (*P<0.05, **P<0.01, ***P<0.001, mean±SD of three independent experiments).
(§1) In FIGS. 6A-6C, MOLT3 and TALL1 cell lines were infected with two different lentiviruses that block HDAC6 expression (shHDAC6 #1 and #2).
(§2) In FIG. 8A, JURKAT cells were treated in vitro with rocilinostat at a concentration of 8 μM for 16 hours.

[3] = system: target genes pTα, CR2, DTX-1; experiment: Expression of Notch target genes in T-ALL cell lines and primary cells; assay type: cell-based, human
Method: (§3) In particular, in FIG. 1A is shown the three cell lines of T-ALL MOLT3, Jurkat and DND41 were treated for 16 hours in vitro with TSA 500 nM. The western blotting confirms the decrease of the full length (FL) Notch3 receptor after treatment. Inhibition of HDACs is confirmed by the increase of acetylated tubulin (Ac. α Tub.). […] The treatment with TSA is accompanied by a decrease in the target genes pTα, CR2, DTX-1 in the cell lines shown in FIG. 1D and in the primary cells shown in FIG. 1E. (*P<0.05, **P<0.01, ***P<0.001, mean±SD of three independent experiments).
(§4) In FIG. 4A, T-ALL cell lines and primary cells were treated in vitro for 16 hours with the HDAC6 inhibitor Tubacin (2 μM, TUB), HDAC1 inhibitor (2 μM, HDAC1i), or HDAC8 inhibitor (2 μM, HDAC8i). Treatment with Tubacin is shown in FIG. 4B, but not with the other inhibitors, is accompanied by a decrease in the target genes pTα, CR2, DTX-1. In FIG. 4C, the three cell lines of T-ALL MOLT3, Jurkat and DND41 (left) and n=3 primary lines (right) were treated for 24 hours in vitro with the compounds previously described, and cell death was evaluated by marking with Annexin V and analysis by cytofluorometer (*P<0.05, **P<0.01, ***P<0.001, mean±SD of three independent experiments).

MOLT3 line = experiment: Proliferation by cell count and MTS assay; assay type: cell-based, human; settings: TSA
Method: (§5) In FIG. 2A and the 7 primary lines shown in FIG. 2B were treated for 24 hours in vitro with TSA 500 nM. Cell death was evaluated by marking with annexin V and analysis with the cytofluorometer. Proliferation inhibition shown in FIG. 2C was assessed in the MOLT3 line by cell count (left panel) and MTS assay (right panel). In FIG. 2D, the Jurkat cells were infected with a control virus (RV-CNTR) or with an expressing Notch3 virus (RV-N3) and subsequently treated with TSA 500 nM for 24 hours. Cell death was evaluated by a luminescence assay for caspase activation (*P<0.05, **P<0.01, ***P<0.001, mean±SD of three independent experiments).

[4] = system: Jurkat, MOLT3 and TALL1 cells; experiment: Cell death by luminescence assay for caspase activation; assay type: cell-based, human; settings: TSA 500 nM, 24 hours
Method: as §5, §1

[5] = system: acetylated tubulin (Ac. α Tub.); experiment: Western blotting of acetylated tubulin in T-ALL cell lines; assay type: cell-based, human; settings: 16 hours
Method: as §3, §2

[6] = system: Notch3 and the lysosomal marker LAMP2; experiment: Immunofluorescence analysis of Notch3/LAMP2 co-localization; assay type: cell-based; settings: after treatment with TSA, N=21 cells
Notch3 receptor [7] = experiment: Notch3 protein levels in patient-derived primary T-ALL lines; assay type: cell-based, human; settings: n=7 patient-derived primary lines; TSA 500 nM, 16 hours
Method: Initially we treated 3 T-ALL cell lines in the laboratory with Tricostatin A (TSA), a generic commercial inhibitor that inhibits the whole class of HDACs that is commonly used in experimental practices. […] The same result was obtained by treating 7 patient-derived primary lines in vitro with TSA.
as §3

[8] = system: T-ALL cell lines and primary lines; experiment: Cell death by annexin V marking and cytofluorometer in T-ALL cells; assay type: cell-based, human; settings: 24 hours
Method: as §5, §4
In FIG. 5 the T-ALL cell lines were treated in vitro for 24 hours with the HDAC6 Tubacin inhibitor (2 μM, TUB) and cell death was assessed by marking with Annexin V and analysis by cytofluorometer (*P<0.05, **P<0.01, ***P<0.001, mean±SD of three independent experiments).
as §2

[9] = system: MDA-MB-468 breast cancer cells; experiment: Cell mortality by Annexin V/propidium iodide in MDA-MB-468 cells; assay type: cell-based; settings: 16 μM
Method: For the assay of FIG. 14, the following protocol was used:
(§6) Day 1: coating (ligand concentration 4 ng/uL)
(§7) Day 3 treatment with 16 μM rocilinostat
Day 5: marking with Annexin V/propidium iodide+reading of mortality by cytofluorometer

NOTCH3 FL protein = experiment: Notch3 FL protein levels in HCC-1143 cells; assay type: cell-based; settings: 8 μM, 24 hours
Method: (§8) To evaluate the effects of rocilinostat on Notch3 expression in HCC-1143 cells, HCC-1143 cells were treated in vitro with rocilinostat at a concentration of 8 μM for 24 hours. […] The increase in acetylated tubulin levels confirms the activity of rocilinostat.

HDAC6 = experiment: Western blotting, inhibition of the target HDAC6 in MDA-MB-468 cells; assay type: cell-based; settings: 8 μM
Method: (§9) In the assay of FIG. 11, Rocilinostat (ACY 1215) is used at a concentration of 8 μM in MDA-MB-468 cells. The expression of Notch3 and other markers was evaluated in cellular lysate by Western blotting.

two T-ALL cell lines = experiment: Cell viability by ATPlite assay; assay type: cell-based, human; settings: 48 hours, indicated concentrations
[10] = system: HCC1143 breast cancer cells; experiment: Cell mortality by Annexin V/propidium iodide in HCC-1143 cells; assay type: cell-based; settings: 16 μM
Method: For the graphs of FIG. 19, the following protocol was used:
as §6, §7
Day 5: marking with Annexin V/propidium iodide+reading of mortality by cytofluorometer.

HCC-1143 cells = experiment: Dose-response growth curve in HCC-1143 cells; assay type: cell-based
acetylated tubulin = experiment: Acetylated tubulin levels in HCC-1143 cells; assay type: cell-based; settings: 8 μM, 24 hours
Method: as §8

Notch3 [11] = experiment: Cytofluorometric evaluation of Notch3 membrane expression in HCC-1143 cells; assay type: cell-based
Method: The following protocol was used for the graphs of FIG. 18:
(§10) Day 1: coating of plate with Notch ligands (ligand concentration 4 ng/uL)
(§11) Day 3 treatment with rocilinostat (16 μM) or control (DMSO)
Day 4: marking+reading by cytofluorometer

Notch3 [12] = experiment: Western blotting of Notch3 in MDA-MB-468 cells; assay type: cell-based; settings: 8 μM
Method: as §9

Notch3 [13] = experiment: Cytofluorometric evaluation of Notch3 expression in MDA-MB-468 cells; assay type: cell-based
Method: The graph of FIG. 12 confirms the reduction of Notch3 expression in MDA-MB-468 cell membrane after treatment with rocilinostat (8 μM) at 24 hours, in accordance with the results of the WB.
For the assay of FIG. 13, the following protocol was used:
as §10, §11
Day 4: Marking+reading by cytofluorometer

[14] = MOLT3, Jurkat and DND41, TSA 500 nM

## CC(C)C[C@H](NC(=O)[C@H](Cc1ccccc1)NC(=O)c1cnccn1)B(O)O [Bortezomib]
TALL1 cells
  cytotoxicity (reduction of actin in Western blot): high cytotoxicity
[1]; TALL1 cells, 20 μM
  Notch3 expression: negative effect

## CCN(CC)CCCC(C)Nc1ccnc2cc(Cl)ccc12 (stereo not drawn) [Chloroquine, chloroquine]
Notch3 receptor [2]; TSA 500 nM
  Notch3 protein levels, inhibitor added to TSA: decrease of Notch3 blocked

## CC(C)C[C@@H](C=O)NC(=O)[C@H](CC(C)C)NC(=O)[C@H](CC(C)C)NC(=O)OCc1ccccc1 [MG132] (Cbz-Leu-Leu-Leu-aldehyde)
Notch3 receptor [2]; TSA 500 nM
  Notch3 protein levels, inhibitor added to TSA: further lowers

## CC(/C=C/C(=O)NO)=C\[C@@H](C)C(=O)c1ccc(N(C)C)cc1 [TSA, Tricostatin A]
[1]; Jurkat cells, Notch2/3 antibody, cytofluorometer, TSA
  Notch3 receptor present in the membrane: decrease
[3]; cell lines and primary cells, treatment with TSA
  target genes pTα, CR2, DTX-1: decrease
Notch3 receptor [2]; [14]
  full length (FL) Notch3 receptor, western blotting: decrease
MOLT3 line
  proliferation (cell count, MTS assay): inhibition of proliferation
[4]
  cell death (caspase activation) after restoring Notch3 levels (RV-N3 vs RV-CNTR): die significantly less
[5]; [14]
  acetylated tubulin (Ac. α Tub.): increase
[6]
  co-localization between Notch3 and LAMP2: increase in co-localization
Notch3 receptor [7]
  Notch3 receptor protein levels: confirming the result seen in the cell lines
[8]; T-ALL cell lines and 7 primary lines, TSA 500 nM
  cell death (annexin V): induction of cell death

## O=C(CCCCCCC(=O)Nc1ccc([C@H]2O[C@@H](CSc3nc(-c4ccccc4)c(-c4ccccc4)o3)C[C@@H](c3ccc(CO)cc3)O2)cc1)NO [Tubacin]
[3]; T-ALL cells, 2 μM, 16 hours
  target genes pTα, CR2, DTX-1: decrease
Notch3 receptor [2]; T-ALL cell lines and primary cells, 2 μM
  decrease in Notch3 protein levels: effects comparable to the generic TSA inhibitor
[8]; MOLT3, Jurkat, DND41 and n=3 primary lines, 2 μM
  cell death (annexin V): effects comparable to the generic TSA inhibitor
[8]; Tubacin 2 μM
  sensitivity of TALL1 cell line compared with other cell lines (cell death, Annexin V): significantly more sensitive

## O=C(CCCCCCNC(=O)c1cnc(N(c2ccccc2)c2ccccc2)nc1)NO [rocilinostat, ricolinostat]
[9]; Day 3 to Day 5
  cell mortality (Annexin V/propidium iodide): causes the death
[9]; ligand 4 ng/uL
  cell mortality in the presence of Notch ligands (JAG1 and DLL4): maintained or slightly increased
NOTCH3 FL protein
  levels of NOTCH3 FL protein: decreases
HDAC6; 16 hours
  target (HDAC6) inhibition: inhibited
HDAC6; 24 hours
  target (HDAC6) inhibition: inhibited
HDAC6; 48 hours
  target (HDAC6) inhibition: no longer inhibited
[1]; TALL1 cells, 8 μM, 16 hours
  Notch3 membrane expression: reduces
Two T-ALL cell lines
  cell viability (ATPlite assay): marked negative effect on cell growth
[10]; Day 3 to Day 5
  cell mortality (Annexin V/propidium iodide): causes the death
[10]; ligand 4 ng/uL
  cell mortality in the presence of Notch ligands (JAG1 and DLL4): maintained
HCC-1143 cells
  growth of HCC-1143 cells (dose-response curve): inhibits the growth of HCC-1143 cells with dose-dependent effects
Notch3 receptor [2]; JURKAT cells, 8 μM
  levels of the NOTCH3 FL protein, Western blotting: decreases
Acetylated tubulin
  acetylated tubulin levels: increase
Notch3 [11]; 16 μM
  Notch3 expression, intensity of expression (MFI): more evident
  Notch3 expression, percentage of positive cells (%): moderate negative effect
Notch3 [11]; 16 μM, ligand 4 ng/uL
  effects on Notch3 expression in the presence of Notch ligands (JAG1 and DLL4): not much influenced
Notch3 [11]; rocilinostat alone
  Notch3 membrane expression: reduction
Notch3 [12]; 16 hours
  Notch3 expression, Western blotting: not reduced
Notch3 [12]; 24 hours
  Notch3 expression, Western blotting: drop in Notch3
[5]; JURKAT cells, 8 μM
  acetylated tubulin levels: increase
Notch3 [13]; 8 μM, 24 hours
  Notch3 expression in cell membrane: reduction
Notch3 [13]; 16 μM
  Notch3 expression, intensity of expression (MFI): marked negative effect
  Notch3 expression, percentage of positive cells (%): marked negative effect
Notch3 [13]; 16 μM, ligand 4 ng/uL
  effect on Notch3 expression in the presence of Notch ligands (JAG1 and DLL4): not substantially affected
[8]; JURKAT and TALL1, 8 μM
  apoptosis (annexin V): strong increase of cell death
